We go through 38 compounds from patent US20090239841A1, “Diaryl Ureas as CB1 Antagonists” (priority 2004, published 2009).

The IC50 is the point on the concentration scale where inhibition reaches its midpoint.

Read-outs that look alike come from different tables or passages of the source.

This assay has as its target T1, hCB1 (Homo sapiens, UniProt P21554).
T1 construct: made in house; host or cells: Sf9 insect cells (baculovirus), P2 membranes
Kind of assay: Agonist-induced GTP binding (GTPγ35S) assay at CB1, Example 8. The settings on record: read-out: IC50. The format is biochemical. From the text: As noted above, compounds provided herein are CB1 antagonists. Certain such compounds are non-competitive CB1 antagonists. In addition, or alternatively, certain compounds provided herein display CB1 specificity. CB1 antagonist activity may be confirmed using an agonist-induced GTP binding assay, such as the assay described in Example 8. Such assays employ a CB1-containing cell membrane preparation (e.g., a preparation of membranes of insect cells that recombinantly express CB1) to determine the effect of a test compound on CB1 agonist-induced GTP binding to CB1. Briefly, a first cell membrane preparation comprising CB1 is contacted with: (i) labeled GTP; (ii) a CB1 agonist; and (iii) a test compound to yield a test membrane preparation. Simultaneously, or in either order, a second cell membrane preparation comprising CB1 is contacted with: (i) labeled GTP; and (ii) a CB1 agonist to yield a control membrane preparation. The labeled GTP is preferably GTPγ^35S; a representative CB1 agonist is CP55,940. Such contact is performed under conditions that are suitable for GTP binding to CB1, such as the conditions described in Example 8. The concentrations of labeled GTP and CB1 agonist used are generally concentrations that are sufficient to result in a detectable increase in the amount of labeled GTP bound to the membrane preparation in the presence of CB1 agonist. Such concentrations may be determined by routine experimentation; representative suitable concentrations are provided in Example 8. Generally, a range of test compound concentrations is used (e.g., ranging from 10^−10M to 10^−5M).
After sufficient contact (e.g., incubation) to allow GTP binding to the membrane preparations, a signal that corresponds to (represents) the amount of bound, labeled GTP is detected (typically, unbound labeled GTP is first removed via a washing step). In other words, simultaneously or in either order: (i) a test signal that represents an amount of bound, labeled GTP in the test membrane preparation is detected; and (ii) a control signal that represents an amount of bound, labeled GTP in the control membrane preparation is detected. The nature of the signal detected is determined by the type of label used. For example, if the GTP is radioactively labeled, the signal detected is radioactive decay (e.g., via liquid scintillation spectrometry). The CB1 antagonist activity of the test compound is then determined by comparing the test signal with the control signal.
This assay can also be used to detect partial agonism mediated by antagonist compounds. A compound being analyzed in this assay is referred to herein as a “test compound.” Agonist-stimulated GTP binding activity is measured as follows: Four independent baculoviral stocks (one directing the expression of hCB1 and three directing the expression of each of the three subunits of a heterotrimeric G-protein) are used to infect a culture of Sf9 cells as described in Example 5.
Agonist-stimulated GTP binding on purified membranes (as described in Example 6) is initially assessed using the cannabinoid agonist CP55,940 to ascertain that the receptor/G-protein-alpha-beta-gamma combination(s) yield a functional response as measured by GTP binding.
P2 membranes are resuspended by Dounce homogenization (tight pestle) in GTP binding assay buffer (50 mM Tris pH 7.4, 120 mM NaCl, 5 mM MgCl2, 2 mM EGTA, 0.1% BSA, 0.1 mM bacitracin, 10 KIU/mL aprotinin, 5 μM GDP) and added to reaction tubes at a concentration of 10 μg protein/reaction tube. After adding increasing doses of the agonist CP55,940 at concentrations ranging from 10^−12 M to 10^−6 M, reactions are initiated by the addition of […] GTPγ^35S. In competition experiments, non-radiolabeled test compounds are added to separate assays at concentrations ranging from 10^−10 M to 10^−5 M along with 1 nM CP55,940 to yield a final volume of 0.25 mL. […]

[1] abbreviates: Table II, IC50 at CB1, GTP binding with 1 nM CP55,940.
The mark [2] stands for this setting: IC50 at CB1, determined as described in Example 8.

T1 sequence (P21554 whole entry): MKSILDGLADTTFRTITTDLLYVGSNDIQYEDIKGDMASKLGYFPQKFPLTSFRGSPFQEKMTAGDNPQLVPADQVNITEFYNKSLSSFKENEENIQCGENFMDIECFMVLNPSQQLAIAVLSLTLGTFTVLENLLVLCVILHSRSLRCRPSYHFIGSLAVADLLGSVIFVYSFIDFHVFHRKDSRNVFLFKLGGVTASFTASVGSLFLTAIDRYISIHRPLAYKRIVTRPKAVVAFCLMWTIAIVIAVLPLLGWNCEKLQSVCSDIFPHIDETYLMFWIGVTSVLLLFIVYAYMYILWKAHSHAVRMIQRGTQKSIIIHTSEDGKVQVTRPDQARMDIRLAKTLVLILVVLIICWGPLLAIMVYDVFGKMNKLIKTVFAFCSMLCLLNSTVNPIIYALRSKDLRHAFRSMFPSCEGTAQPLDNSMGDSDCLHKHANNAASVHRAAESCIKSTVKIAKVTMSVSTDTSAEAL

Turning to `Cc1noc(C)c1-c1cccc(NC(=O)Nc2ccc(OC(F)F)cc2)c1` [Compound 115, N-[4-(difluoromethoxy)phenyl]-N′-[3-(3,5-dimethylisoxazol-4-yl)phenyl]urea], the IC50 under setting [1] is < 2000 nM. With `CCc1ccc(NC(=O)Nc2ccc(F)cc2)cc1` [Compound 175, N-(4-ethylphenyl)-N′-(4-fluorophenyl)urea], under setting [1], the IC50 was < 2000 nM.

For `CCOC(=O)c1cccc(NC(=O)Nc2ccc(Cl)c(C)c2)c1` [Compound 771, ethyl 3-({[(4-chloro-3-methylphenyl)amino]carbonyl}amino)benzoate], the IC50 under setting [2] is < 2000 nM. For `CCC(CC)Oc1ccc(-c2cccc(NC(=O)Nc3ccc(OC(F)F)cc3)c2)nc1NC` [Compound 122, N-[4-(difluoromethoxy)phenyl]-N′-{3-[5-(1-ethylpropoxy)-6-(methylamino)pyridin-2-yl]phenyl}urea], the IC50 under setting [1] was < 2000 nM. Take `COC(=O)c1ccc(NC(=O)Nc2ccc(C)cc2)cc1` [Compound 470, methyl 4-({[(4-methylphenyl)amino]carbonyl}amino)benzoate]: the IC50 under setting [2] was < 2000 nM.

Turning to `CCOc1cccc(NC(=O)Nc2cccc(C#N)c2)c1` [Compound 262, N-(3-cyanophenyl)-N′-(3-ethoxyphenyl)urea], under setting [1], the IC50 was < 2000 nM. On to `CC(C)Oc1ccc(NC(=O)Nc2ccc(OC(F)F)cc2)cc1` [Compound 97, N-[4-(difluoromethoxy)phenyl]-N′-(4-isopropoxyphenyl)urea], for which the half-inhibitory concentration (IC50) under setting [1] is < 2000 nM.

With `CCOC(=O)c1cccc(NC(=O)Nc2ccc(C)c(F)c2)c1` [Compound 766, ethyl 3-({[(3-fluoro-4-methylphenyl)amino]carbonyl}amino)benzoate], the IC50 under setting [2] is < 2000 nM. As for `CCc1ccc(NC(=O)Nc2cc(C)ccn2)cc1` [Compound 640, 1-(4-ethylphenyl)-3-(4-methylpyridin-2-yl)urea], the IC50 under setting [2] was < 2000 nM.

With `CCCc1ccc(NC(=O)Nc2cccc(C(=O)OCC)c2)cc1` [Compound 652, ethyl 3-({[(4-propylphenyl)amino]carbonyl}amino)benzoate], the IC50 under setting [2] is < 2000 nM. On to `CCc1ccc(NC(=O)Nc2ccc(Cl)nc2)cc1` [Compound 153, N-(6-chloropyridin-3-yl)-N′-(4-ethylphenyl)urea], for which the IC50 under setting [1] is < 2000 nM.

Turning to `CC(C)Oc1cccc(NC(=O)Nc2ccc(Cl)cc2)c1` [Compound 401, 1-(4-chlorophenyl)-3-(3-isopropoxyphenyl)urea], under setting [2], the IC50 is < 2000 nM. Regarding `COc1cccc(NC(=O)Nc2ccc(C(C)C)cc2)c1` [Compound 521, 1-(4-isopropylphenyl)-3-(3-methoxyphenyl)urea], the IC50 under setting [2] is < 2000 nM. Still for that read-out and setting: to `Cc1ccc(NC(=O)Nc2cccc(C#N)c2)cc1F` [Compound 448, 1-(3-cyanophenyl)-3-(3-fluoro-4-methylphenyl)urea] belongs < 2000 nM. Turning to `N#CCOc1ccc(NC(=O)Nc2ccc(OC(F)F)cc2)cc1` [Compound 582, 1-[4-(cyanomethoxy)phenyl]-3-[4-(difluoromethoxy)phenyl]urea], under setting [2], the IC50 was < 2000 nM. For the compound `O=C(Nc1ccc(OC(F)F)cc1)Nc1cccc(-c2cncc3ccccc23)c1` [Compound 68, N-[4-(difluoromethoxy)phenyl]-N′-(3-isoquinolin-4-ylphenyl)urea], the IC50 under setting [1] was < 2000 nM.

With `CCc1ccc(NC(=O)Nc2cccc(Cl)c2)cc1` [Compound 180, N-(3-chlorophenyl)-N′-(4-ethylphenyl)urea], the IC50 under setting [1] is < 2000 nM.

On to `CCCOc1ccc(NC(=O)Nc2ccc(OC(F)(F)F)cc2)cc1` [Compound 535, 1-(4-propoxyphenyl)-3-[4-(trifluoromethoxy)phenyl]urea], for which the 50% inhibitory concentration (IC50) under setting [2] was < 2000 nM. Turning to `Cc1cc(NC(=O)Nc2ccc(OC(F)F)cc2)nc(C)n1` [Compound 78, N-[4-(difluoromethoxy)phenyl]-N′-(2,6-dimethylpyrimidin-4-yl)urea], the IC50 under setting [1] was < 2000 nM.

Consider `COc1cc(NC(=O)Nc2ccc(C)cc2)ccc1OC(F)F` [Compound 61, N-[4-(difluoromethoxy)-3-methoxyphenyl]-N′-(4-methylphenyl)urea], for which the IC50 under setting [1] is < 2000 nM. `Cc1cccc(NC(=O)Nc2ccc(OC(F)F)cc2)c1` [Compound 307, N-[4-(difluoromethoxy)phenyl]-N′-(3-methylphenyl)urea]: the IC50 under setting [2] was < 2000 nM.

On to `CCc1ccccc1NC(=O)Nc1cccc(OC(F)F)c1` [Compound 227, N-[3-(difluoromethoxy)phenyl]-N′-(2-ethylphenyl)urea], for which, under setting [1], the IC50 was < 2000 nM. As for `CCc1ccc(NC(=O)Nc2ccc(F)c(F)c2)cc1` [Compound 441, 1-(3,4-difluorophenyl)-3-(4-ethylphenyl)urea], the IC50 under setting [2] is < 2000 nM. Take `CCCc1ccc(NC(=O)Nc2ccc(Cl)cc2)cc1` [Compound 185, N-(4-chlorophenyl)-N′-(4-propylphenyl)urea]: the IC50 under setting [1] is < 2000 nM. As to `COCc1ccc(NC(=O)Nc2cccc(F)c2)cc1` [Compound 360, 1-(3-fluorophenyl)-3-[4-(methoxymethyl)phenyl]urea], the IC50 under setting [2] was < 2000 nM. In the case of `CCOc1ccc(NC(=O)Nc2cccc(Cl)c2)cc1` [Compound 236, N-(3-chlorophenyl)-N′-(4-ethoxyphenyl)urea], the IC50 under setting [1] was < 2000 nM. Turning to `CC(C)Oc1cccc(NC(=O)Nc2cccc(F)c2)c1` [Compound 211, N-(3-fluorophenyl)-N′-(3-isopropoxyphenyl)urea], under setting [1], the IC50 was < 2000 nM. Regarding `O=C(Nc1ccc(F)cc1)Nc1ccc2c(c1)CCC2` [Compound 432, 1-(2,3-dihydro-1H-inden-5-yl)-3-(4-fluorophenyl)urea], under setting [2], the IC50 is < 2000 nM. As for `O=C(Nc1ccc(OC(F)F)cc1)Nc1ccc(N2CCCC2)cc1` [Compound 104, N-[4-(difluoromethoxy)phenyl]-N′-(4-pyrrolidin-1-ylphenyl)urea], the IC50 under setting [1] is < 2000 nM.

As for `CC(C)Oc1cccc(NC(=O)Nc2cccc(F)c2)c1` [Compound 363, 1-(3-fluorophenyl)-3-(3-isopropoxyphenyl)urea], the IC50 under setting [2] was < 2000 nM.

As for `O=C(Nc1ccc(OC(F)F)cc1)Nc1ccc(S(=O)(=O)N2CCCCC2)cc1` [Compound 110, N-[4-(difluoromethoxy)phenyl]-N′-[4-(piperidin-1-ylsulfonyl)phenyl]urea], the IC50 under setting [1] is < 2000 nM. As for `CC(C)Oc1ccc(NC(=O)Nc2ccccc2OC(F)F)cc1` [Compound 537, 1-[2-(difluoromethoxy)phenyl]-3-(4-isopropoxyphenyl)urea], the IC50 under setting [2] was < 2000 nM. For the compound `CCOC(=O)c1cccc(NC(=O)Nc2ccc(F)cc2)c1` [Compound 644, ethyl 3-({[(4-fluorophenyl)amino]carbonyl}amino)benzoate], the IC50 under setting [2] was < 2000 nM. In the case of `CCc1ccc(NC(=O)Nc2ccc(C)c(Cl)c2)cc1` [Compound 444, 1-(3-chloro-4-methylphenyl)-3-(4-ethylphenyl)urea], the IC50 under setting [2] is < 2000 nM. `CCc1cccc(NC(=O)Nc2ccc(C(C)=O)cc2)c1` [Compound 190, N-(4-acetylphenyl)-N′-(3-ethylphenyl)urea]: under setting [1], the IC50 is < 2000 nM. For the compound `CCCc1ccc(NC(=O)Nc2cccc(C#N)c2)cc1` [Compound 350, 1-(3-cyanophenyl)-3-(4-propylphenyl)urea], the IC50 under setting [2] is < 2000 nM. Take `Cc1ccc2cc(-c3cccc(NC(=O)Nc4ccc(OC(F)F)cc4)c3)ccc2n1` [Compound 70]: the IC50 under setting [1] is < 2000 nM. `CCOc1cccc(NC(=O)Nc2ccccc2)c1` [Compound 374, 1-(3-ethoxyphenyl)-3-phenylurea]: the IC50 under setting [2] is < 2000 nM.
